From patent EP0017543B1, “Benzothiazole derivatives, process for their preparation and their therapeutical uses” (Albert ROLLAND S.A. Société dite, priority 1979, dated 1980)

How the values were obtained:
[1] = system: biosynthèse des prostaglandines; assay: Protection against arachidonic acid toxicity (lethal dose) in mice; type: in vivo, souris
[2] = system: agrégation plaquettaire provoquée in vitro par l'ADP; assay: ADP-induced platelet aggregation in vitro in platelet-rich rat plasma; type: cell-based; details: plasma de rat enrichi en plaquettes
Solubility in water = type: physicochemical
Protocol: Le sel de pyrrolidine de l'acide (phényl-2 benzothiazolyl-6)-2 propionique est préparé par action d'I g d'amine sur 4 g d'acide en solution dans le méthanol. Il fond à 142°C.

[3] = system: torsions à la phénylbenzoquinone chez la souris; assay: Phenylbenzoquinone writhing test (analgesic activity); type: in vivo; details: dose de 12,5 mg/kg, 24 heures après son administration
Protocol: L'activité analgésique des composés de formule 1 a été mise en évidence dans le test des torsions à la phénylbenzoquinone chez la souris. Ainsi, l'acide de formule 1 (racémique) possède dans ce test une DE50 de 3 à 6 mg/kg P.O. Cette activité analgésique est prolongée dans le temps, une dose de 12,5 mg/kg de ce composé entraînant encore une analgésie de 42%, 24 heures après son administration.

Which “activité contre la toxicité de l'acide arachidonique, comparison of enantiomers and racemate” value ([1]; route not stated for the comparison) does the source give for `CC(C(=O)O)c1ccc2nc(-c3ccccc3)sc2c1` (single isomer, unassigned) [Exemple 8a, acide (phényl-2 benzothiazolyl-6)-2 propionique] here?
The value was “activité comparable à celle du racémique (exemple 1), et supérieure à celle de son homologue lévogyre”.

Which “concentration active par rapport à l'acide acétyl salicylique” value [2] does the source give for `CC(C(=O)O)c1ccc2nc(-c3ccccc3)sc2c1` (racemic) here?
The value was “actif à une concentration dix fois plus faible que l'acide acétyl salicylique”.

For `CC(C(=O)O)c1ccc2nc(-c3ccccc3)sc2c1` (racemic) [Exemple 3, (phényl-2 benzothiazolyl-6)-2 propionate de sodium], which “activité contre la toxicité de l'acide arachidonique” value ([1]; voie intraveineuse, same doses (0,5 mg/kg)) is on record?
The value was “actifs aux mêmes doses”.

And the “solubilité dans l'eau” value (Solubility in water)?
The value was “soluble dans l'eau”.

Which “solubilité dans l'eau” value (Solubility in water) does the source give for `CC(C(=O)O)c1ccc2nc(-c3ccccc3)sc2c1` (racemic) [Exemple 4, sel de pyrrolidine de l'acide (phényl-2 benzothiazolyl-6)-2 propionique] here?
Its value is “soluble dans l'eau”.

With `CC(C(=O)O)c1ccc2nc(-c3ccccc3)sc2c1` (racemic) [Exemple 1, acide (phényl-2 benzothiazolyl-6)-2 propionique] as the compound, how does the analgésie [3] read?
The analgésie was 42%.
